According to US9458092B2, “α-Substituted glycinamide derivative” (KISSEI PHARMACEUTICAL CO., LTD., priority 2013, dated 2016):

Biological target: TRPM8 (Rattus norvegicus, UniProt Q8R455)
Assay: Confirmation test of inhibitory effects on icilin-induced wet-dog shakes
Type: in vivo, female SD rats
Set-up: test compounds were orally administered to female SD rats; from tissue; host or cells: whole animal (female SD rats), endogenous channel
Conditions: icilin 1 mg/kg i.p. after 1 hour, shakes counted for 5 minutes
Experimental: Test compounds were dissolved in dimethylacetamide (wako), and 0.5% methylcellulose solution (wako) was added to make the solution or suspension containing 5% of dimethylacetamide. At a dose of 3 or 10 mg/kg/5 mL of test compounds were orally administered to female SD rats. After 1 hour, wet-dog shakes were induced by the intrapenitoneal injection of icilin (1 mg/kg) which was dissolved in polyethylene glycol 400 (wako). From 5 minutes after the administration of icilin, wet-dog shakes were counted for 5 minutes. For control example, vehicle (a mixture of dimethylacetamide (wako): 0.5% methylcellulose (wako)=5:95) was administrated similarly, and the number of wet-dog shakes was counted in the same manner. A percent inhibition of wet-dog shakes by test compound was calculated from the following formula: [1-(test compound wet-dog shake count/vehicle wet-dog shake count)]×100.

Chain of TRPM8 (Q8R455 whole entry): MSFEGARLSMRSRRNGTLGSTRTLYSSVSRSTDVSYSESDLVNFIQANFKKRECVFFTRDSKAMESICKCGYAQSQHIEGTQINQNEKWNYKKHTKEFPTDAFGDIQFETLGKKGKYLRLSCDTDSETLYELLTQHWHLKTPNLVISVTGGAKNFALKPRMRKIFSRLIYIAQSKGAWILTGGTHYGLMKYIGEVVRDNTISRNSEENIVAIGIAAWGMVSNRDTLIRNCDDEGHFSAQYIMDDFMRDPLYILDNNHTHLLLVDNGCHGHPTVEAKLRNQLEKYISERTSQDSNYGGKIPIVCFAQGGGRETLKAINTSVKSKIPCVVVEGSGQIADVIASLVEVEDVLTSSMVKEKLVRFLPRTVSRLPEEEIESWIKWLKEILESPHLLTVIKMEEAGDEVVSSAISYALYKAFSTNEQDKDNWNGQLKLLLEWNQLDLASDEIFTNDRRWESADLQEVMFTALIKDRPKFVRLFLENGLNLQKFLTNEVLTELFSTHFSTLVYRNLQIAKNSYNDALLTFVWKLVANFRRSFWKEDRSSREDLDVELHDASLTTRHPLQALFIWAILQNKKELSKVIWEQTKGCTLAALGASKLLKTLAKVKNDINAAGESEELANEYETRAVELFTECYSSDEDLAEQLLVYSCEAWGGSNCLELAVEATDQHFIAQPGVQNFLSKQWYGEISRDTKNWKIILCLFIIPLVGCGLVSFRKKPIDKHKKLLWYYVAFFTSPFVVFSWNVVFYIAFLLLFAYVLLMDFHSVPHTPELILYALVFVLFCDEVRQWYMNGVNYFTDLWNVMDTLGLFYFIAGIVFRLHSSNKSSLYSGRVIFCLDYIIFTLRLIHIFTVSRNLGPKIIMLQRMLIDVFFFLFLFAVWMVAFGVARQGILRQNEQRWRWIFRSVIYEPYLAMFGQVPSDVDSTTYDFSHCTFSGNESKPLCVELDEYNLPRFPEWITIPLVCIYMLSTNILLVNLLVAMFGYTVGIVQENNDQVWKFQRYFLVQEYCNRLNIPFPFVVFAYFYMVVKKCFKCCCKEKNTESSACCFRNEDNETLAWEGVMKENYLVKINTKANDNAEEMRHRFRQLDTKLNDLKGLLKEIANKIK

SMILES	% inhibition of Wet-Dog Shake (dose 3 mg/kg orally) [%]	% inhibition of Wet-Dog Shake (dose 10 mg/kg orally) [%]
NC(=O)[C@@H](c1ccccc1)N(C(=O)c1cccc2c1OCO2)[C@@H]1CCc2c(F)cc(Cl)cc21 [Example 2-173LP, N-[(R)-carbamoylphenylmethyl]-N-[(R)-6-chloro-4-fluoroindan-1-yl]benzo[1,3]dioxole-4-carboxamide]	99	
COc1ncccc1C(=O)N([C@@H]1CCc2c(F)cc(Cl)cc21)[C@@H](C(N)=O)c1cccnc1 [Example 2-180LP, N-[(R)-carbamoylpyridin-3-ylmethyl]-N-[(R)-6-chloro-4-fluoroindan-1-yl]-2-methoxynicotinamide]	32	
Cc1ncccc1C(=O)N([C@@H]1CCc2c(F)cc(Cl)cc21)[C@@H](C(N)=O)c1cccc(O)c1 [Example 2-168LP, N-[(R)-carbamoyl-(3-hydroxyphenyl)methyl]-N-[(R)-6-chloro-4-fluoroindan-1-yl]-2-methylnicotinamide]	36	
NC(=O)[C@@H](c1ccccc1)N(C(=O)c1cnccn1)[C@@H]1CCc2c(F)cc(Cl)cc21 [Example 2-179LP, N-[(R)-carbamoylphenylmethyl]-N-[(R)-6-chloro-4-fluoroindan-1-yl]pyrazine-2-carboxamide]	32	
NC(=O)[C@@H](c1cccnc1)N(C(=O)c1cccc2c1OCO2)[C@@H]1CCc2c(F)cc(Cl)cc21 [Example 2-172LP, N-[(R)-carbamoylpyridin-3-ylmethyl]-N-[(R)-6-chloro-4-fluoroindan-1-yl]benzo[1,3]dioxole-4-carboxamide]	43	
NC(=O)[C@@H](c1cnccn1)N(C(=O)c1ccccc1O)[C@@H]1CCc2c(F)cc(Cl)cc21 [Example 4-8, N-[(R)-carbamoylpyrazin-2-ylmethyl]-N-[(R)-6-chloro-4-fluoroindan-1-yl]-2-hydroxybenzamide]	37	
N#Cc1ccc2c(c1)[C@H](N(C(=O)c1ccccc1O)[C@@H](C(N)=O)c1ccccc1)CC2 [Example 3-2, N-[(R)-carbamoylphenylmethyl]-N-[(R)-6-cyanoindan-1-yl]-2-hydroxybenzamide]		73
NC(=O)[C@@H](c1cccnc1)N(C(=O)c1ccccc1O)[C@@H]1CCc2c(F)cc(Cl)cc21 [Example 4-5, N-[(R)-carbamoylpyridin-3-ylmethyl]-N-[(R)-6-chloro-4-fluoroindan-1-yl]-2-hydroxybenzamide]	76	
Cc1ncccc1C(=O)N([C@@H]1CCc2c(F)cc(Cl)cc21)[C@@H](C(N)=O)c1cccc(N)c1 [Example 21-1, N-[(R)-(3-Aminophenyl)carbamoylmethyl]-N-[(R)-6-chloro-4-fluoroindan-1-yl]-2-methylnicotinamide]		99
NC(=O)[C@@H](c1ccccc1)N(C(=O)c1ccccc1)[C@@H]1CCc2ccc(OC(F)F)cc21 [Example 2-11LP, N-[(R)-carbamoylphenylmethyl]-N-[(R)-6-difluoromethoxyindan-1-yl]benzamide]		85
NC(=O)[C@@H](c1cccnc1)N(C(=O)c1ccc(F)cc1O)[C@@H]1CCc2c(F)cc(Cl)cc21 [Example 19-16LP, N-[(R)-carbamoylpyridin-3-ylmethyl]-N-[(R)-6-chloro-4-fluoroindan-1-yl]-4-fluoro-2-hydroxybenzamide]		63
NC(=O)[C@@H](c1ccccc1)N(C(=O)c1cccnc1N)[C@@H]1CCc2ccc(Cl)cc21 [Example 2-33LP, 2-amino-N-[(R)-carbamoylphenylmethyl]-N-[(R)-6-chloroindan-1-yl]nicotinamide]		98
Cc1cccc(C(=O)N([C@@H]2CCc3c(F)cc(Cl)cc32)[C@@H](C(N)=O)c2ccccc2)c1O [Example 4-9, N-[(R)-carbamoylphenylmethyl]-N-[(R)-6-chloro-4-fluoroindan-1-yl]-2-hydroxy-3-methylbenzamide]	36	
NC(=O)[C@@H](c1ccccc1)N(C(=O)c1ccccc1O)[C@@H]1COc2ccc(Cl)cc21 [Example 4-2, N-[(R)-carbamoylphenylmethyl]-N-[(S)-5-chloro-2,3-dihydrobenzofuran-3-yl]-2-hydroxybenzamide]		86
Cc1ncncc1C(=O)N([C@@H]1CCc2c(F)cc(Cl)cc21)[C@@H](C(N)=O)c1ccccc1 [Example 2-154LP, N-[(R)-carbamoylphenylmethyl]-N-[(R)-6-chloro-4-fluoroindan-1-yl]-4-methylpyrimidine-5-carboxamide]	36	
NC(=O)[C@@H](c1cccc(N)c1)N(C(=O)c1ccccc1O)[C@@H]1CCc2c(F)cc(Cl)cc21 [Example 21-2, N-[(R)-(3-Aminophenyl)carbamoylmethyl]-N-[(R)-6-chloro-4-fluoroindan-1-yl]-2-hydroxybenzamide]		94

SMILES	% inhibition of Wet-Dog Shake (dose 3 mg/kg orally) [%]	% inhibition of Wet-Dog Shake (dose 10 mg/kg orally) [%]
Cc1cnoc1C(=O)N([C@@H]1CCc2c(F)cc(Cl)cc21)[C@@H](C(N)=O)c1ccccc1 [Example 2-150LP, N-[(R)-carbamoylphenylmethyl]-N-[(R)-6-chloro-4-fluoroindan-1-yl]-4-methylisoxazole-5-carboxamide]	49	
NC(=O)[C@@H](c1cncc(F)c1)N(C(=O)c1ccccc1O)[C@@H]1CCc2c(F)cc(Cl)cc21 [Example 19-31LP, N-[(R)-Carbamoyl(5-fluoropyridin-3-yl)methyl]-N-[(R)-6-chloro-4-fluoroindan-1-yl]-2-hydroxybenzamide]	71	
COc1cc(F)c2c(c1)[C@H](N(C(=O)c1cccnc1)[C@@H](C(N)=O)c1ccccc1)CC2 [Example 2-39LP, N-[(R)-carbamoylphenylmethyl]-N-[(R)-4-fluoro-6-methoxyindan-1-yl]nicotinamide]		98
Cc1cccc(C(=O)N([C@@H]2CCc3c(F)cc(Cl)cc32)[C@@H](C(N)=O)c2cccnc2)c1O [Example 19-41LP, N-[(R)-Carbamoylpyridin-3-ylmethyl]-N-[(R)-6-chloro-4-fluoroindan-1-yl]-2-hydroxy-3-methylbenzamide]		92
CNc1ncccc1C(=O)N([C@@H]1CCc2c(F)cc(Cl)cc21)[C@@H](C(N)=O)c1ccccc1 [Example 2-107LP, N-[(R)-carbamoylphenylmethyl]-N-[(R)-6-chloro-4-fluoroindan-1-yl]-2-(methylamino)nicotinamide]	68	
Cc1ccncc1C(=O)N([C@@H]1CCc2c(F)cc(Cl)cc21)[C@@H](C(N)=O)c1ccccc1 [Example 2-100LP, N-[(R)-carbamoylphenylmethyl]-N-[(R)-6-chloro-4-fluoroindan-1-yl]-4-methylnicotinamide]	47	
Cc1cnccc1C(=O)N([C@@H]1CCc2c(F)cc(Cl)cc21)[C@@H](C(N)=O)c1ccccc1 [Example 2-167LP, N-[(R)-carbamoylphenylmethyl]-N-[(R)-6-chloro-4-fluoroindan-1-yl]-3-methylisonicotinamide]	64	
Cc1ccc(C(=O)N([C@@H]2CCc3c(F)cc(Cl)cc32)[C@@H](C(N)=O)c2cccnc2)c(O)c1 [Example 19-12LP, N-[(R)-carbamoylpyridin-3-ylmethyl]-N-[(R)-6-chloro-4-fluoroindan-1-yl]-2-hydroxy-4-methylbenzamide]		82
NC(=O)[C@@H](c1ccccc1)N(C(=O)c1cccnc1)[C@@H]1CCc2c(F)cccc21 [Example 2-56LP, N-[(R)-carbamoylphenylmethyl]-N-[(R)-4-fluoroindan-1-yl]nicotinamide]		50
NC(=O)[C@@H](c1ccccc1)N(C(=O)c1cccnc1Cl)[C@@H]1CCc2c(F)cc(Cl)cc21 [Example 2-93LP, N-[(R)-carbamoylphenylmethyl]-2-chloro-N-[(R)-6-chloro-4-fluoroindan-1-yl]nicotinamide]	100	
NC(=O)[C@@H](c1cccnc1)N(C(=O)c1ccc(Cl)cc1O)[C@@H]1CCc2c(F)cc(Cl)cc21 [Example 19-17LP, N-[(R)-carbamoylpyridin-3-ylmethyl]-4-chloro-N-[(R)-6-chloro-4-fluoroindan-1-yl]-2-hydroxybenzamide]		66
NC(=O)[C@@H](c1ccccc1)N(C(=O)c1cccnc1N)[C@@H]1CCc2ccc(OC(F)F)cc21 [Example 2-27LP, 2-amino-N-[(R)-carbamoylphenylmethyl]-N-[(R)-6-difluoromethoxyindan-1-yl]nicotinamide]		95
NC(=O)[C@@H](c1ccccc1)N(C(=O)c1ccccc1)[C@@H]1COc2c(F)cc(Cl)cc21 (racemic) [Example 2-252M, N-[(RS)-carbamoylphenylmethyl]-N-[(SR)-5-chloro-7-fluoro-2,3-dihydrobenzofuran-3-yl]benzamide]	31	
COc1ccc2c(c1)[C@H](N(C(=O)c1cccnc1)[C@@H](C(N)=O)c1ccccc1)CC2 [Example 1-6, N-[(R)-Carbamoylphenylmethyl]-N-[(R)-6-methoxyindan-1-yl]nicotinamide]		64
Cc1ncsc1C(=O)N([C@@H]1CCc2c(F)cc(F)cc21)[C@@H](C(N)=O)c1ccccc1 [Example 2-132LP, N-[(R)-carbamoylphenylmethyl]-N-[(R)-4,6-difluoroindan-1-yl]-4-methylthiazole-5-carboxamide]	49	
